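In this assay, cells in 96-well plates receive the compound at five concentrations for 48 hours. Endpoints are linearly interpolated between the surrounding concentrations. The concentration for 50% growth inhibition is given as GI50. TGI: total growth inhibition.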
How the values were obtained:
Experiment in all cases: DTP human tumour cell line panel, 48 h
KM12 colon = tested on: KM12 colon
SR leukemia = tested on: SR leukemia
OVCAR-5 ovarian = tested on: OVCAR-5 ovarian
UO-31 renal = tested on: UO-31 renal
LOX IMVI melanoma = tested on: LOX IMVI melanoma
ACHN renal = tested on: ACHN renal
SF-295 CNS = tested on: SF-295 CNS
U251 CNS = tested on: U251 CNS
SK-OV-3 ovarian = tested on: SK-OV-3 ovarian
SF-268 CNS = tested on: SF-268 CNS
OVCAR-8 ovarian = tested on: OVCAR-8 ovarian
K-562 leukemia = tested on: K-562 leukemia
OVCAR-3 ovarian = tested on: OVCAR-3 ovarian

SMILES	TGI (KM12 colon) [µM]	TGI (SR leukemia) [µM]	TGI (OVCAR-5 ovarian) [µM]	TGI (UO-31 renal) [µM]	TGI (LOX IMVI melanoma) [µM]	TGI (ACHN renal) [µM]	TGI (SF-295 CNS) [µM]	TGI (U251 CNS) [µM]	TGI (SK-OV-3 ovarian) [µM]	TGI (SF-268 CNS) [µM]	TGI (OVCAR-8 ovarian) [µM]	TGI (K-562 leukemia) [µM]	TGI (OVCAR-3 ovarian) [µM]	GI50 (SR leukemia) [µM]
CCOC(=O)/C=C/c1ccccn1	> 100	> 100	> 100	> 100	> 100	> 100	> 100	> 100	> 100	> 100	> 100	> 100		
O=C(CSc1nnc(-c2ccc(N=Cc3ccc(Cl)cc3)cc2)o1)Nc1cccc(Cl)c1	> 100	> 100		> 100	> 100	> 100	> 100	> 100	> 100	> 100	> 100	> 100		
COC(=O)C1CCC(=O)N1C(c1ccc2c(c1)OCO2)c1ccc2c(c1)OCO2 (stereo not given)	> 100	> 100	> 100	> 100	> 100	> 100	> 100	> 100	> 100	> 100	> 100	> 100	> 100	
CN(C)/C=N/c1nc2ncn(CCOC(=O)c3ccccc3)c2c(=O)[nH]1	> 100	> 100	> 100	> 100	> 100	> 100	> 100	> 100	> 100	> 100	> 100	> 100	> 100	
S=C(Nc1ccccc1)N1N=C2c3ccccc3CC[C@H]2[C@@H]1c1ccccc1	> 100	1.96	> 100	> 100	> 100	> 100		> 100	> 100	> 100	> 100		> 100	
Cn1cnc([N+](=O)[O-])c1Sc1nc(N)nc2c1ncn2Cc1ccccc1	> 100	> 100	63.1	34.2	65.4	31.3	> 100	60.1	57	44.6	72.2	> 100	9.97	
O=C1NN(c2ccccc2)C(=O)C2C3c4ccccc4C(c4ccccc43)C12 (stereo not given)	> 100	> 100		> 100	> 100	> 100	> 100	> 100	> 100	> 100	> 100	> 100	> 100	
CC(C)(C)NC1C2CCC(C)(C1O)C2(C)C (stereo not given)	> 100	> 100	> 100	> 100	> 100	21.6	> 100	> 100	> 100	> 100	> 100	> 100	> 100	
O=C(/C(=C/c1cccs1)c1ccccc1)c1ccccc1	> 100	> 100	> 100	> 100	> 100	> 100	> 100	> 100	> 100	> 100	> 100	> 100	> 100	
Cc1cccc(NC(=S)N/N=C(/c2ccccc2)c2ccccn2)c1	13.8	7.13	8.68	10.4	11.5	11.8	10.7	12.5	14.1	12.6	15.4	2.84	11.9	
CN1OC2OC(=O)OC2[C@H]1[C@H]1O[C@H](c2ccccc2)OC1(C)c1cc(OC(=O)c2ccccc2)ccc1OC(=O)c1ccccc1 (stereo not given in full)	> 50	> 50	> 50	> 50	> 50	> 50		> 50	> 50	> 50	> 50	> 50	> 50	
CCOP(=O)(OCC)/C(C#N)=C/c1c(C)[nH]c2ccccc12	> 100	> 100	> 100	47.8	> 100	> 100	> 100	> 100	> 100	> 100	> 100	> 100	> 100	
COc1c(O)cc(C(=O)O[C@@H]2Cc3c(O)cc(O)cc3O[C@@H]2c2cc(O)c(O)c(O)c2)cc1O	39	95.8	> 100	50.5	40.2	> 100	46.2		> 100	46.7	54.1	46.8	> 100	
CN(C)/C=N/S(=O)(=O)c1nn2c(C=O)c(-c3ccc(-c4ccc([N+](=O)[O-])cc4)o3)nc2s1	> 49.1	5.4	> 30.5	5.99	> 25	8.99	> 46.5	> 30.2	> 71.5	> 29	> 38.8		8.41	
N/N=C(\C(=O)Nc1ccc([N+](=O)[O-])cc1)C(C1=Nc2cc([N+](=O)[O-])ccc2NC1)[N+](=O)[O-] (stereo not given)	> 100	> 100	> 100	> 100	> 100	> 100	> 100	> 100	> 100	> 100	> 100	> 100	> 100	
COc1ccc(C#CCC(OC2OC(CO)C(O)C(O)C2O)C(O)c2ccc(OC)c(OC)c2)cc1OC (stereo not given)	> 100	> 100	> 100	> 100	59.1	> 100	> 100	> 100	> 100	> 100	> 100	> 100	> 100	
COc1ccc([C@@H]2CC(=O)NCCCCNCCCN2)cc1	> 100	> 100	> 100	> 100		> 100	> 100	> 100	> 100	> 100	> 100	> 100		
CCOC(=O)C1(Cc2ccccc2)Cc2ccccc2C1=O (stereo not given)	> 100	78.2	> 100	57.3	> 100	> 100	> 100	> 100	> 100	> 100	> 100	> 100	> 100	

SMILES	TGI (KM12 colon) [µM]	TGI (SR leukemia) [µM]	TGI (OVCAR-5 ovarian) [µM]	TGI (UO-31 renal) [µM]	TGI (LOX IMVI melanoma) [µM]	TGI (ACHN renal) [µM]	TGI (SF-295 CNS) [µM]	TGI (U251 CNS) [µM]	TGI (SK-OV-3 ovarian) [µM]	TGI (SF-268 CNS) [µM]	TGI (OVCAR-8 ovarian) [µM]	TGI (K-562 leukemia) [µM]	TGI (OVCAR-3 ovarian) [µM]	GI50 (SR leukemia) [µM]
Cc1ccc(C)c(NC(=O)C(Cc2c[nH]c3ccccc23)NC(=O)OCc2ccccc2)c1 (stereo not given)	69.7	48.2	> 100	34.9	> 100	> 100	> 100	35.1	50.1	> 100	> 100	28.9	> 100	
Cc1nc(C)c(N2CCN(C#N)CC2)c(=O)[nH]1	> 100	> 100		> 100	> 100	> 100	> 100	> 100	> 100	> 100	> 100	> 100	> 100	
CC[C@]12C=CCN3CCC4(c5cc([C@@]6(C(=O)OC)CC7CN(CCc8c6[nH]c6ccccc86)C[C@@H]6CCC[C@H]76)c(OC)cc5N(C)C4[C@](O)(C(=O)OC)C1OC(C)=O)C32 (stereo not given in full)		0.788	> 10	> 10	> 10	> 8.37	> 3.23	> 5.19	> 2.54	1.6	> 4.81	> 10	0.337	
Cc1cc(-c2nc3cc(F)c(F)cc3s2)ccc1N	> 100	> 100	> 100	> 100	> 100	> 100	> 82.9	> 100	> 100	> 100	> 100	> 100	> 100	
C/C(=N\Nc1nc2ccccc2o1)c1ccncn1	11.6	> 100	> 100	75.5	> 37.1	> 100	> 100	> 36.4	17.4	> 53.8	35.7	> 100		
COC(=O)CCC(=O)c1ccc2c(c1)CC1(C2)Cc2ccc3c(c2C1)CCCC3=O (stereo not given)	> 85	8.05	> 100	> 59.3	> 100	> 70.2	79.3	> 100	> 100	> 100	> 100	9.44	47.7	
O=C1OC(c2ccccc2)N/C1=C\c1ccc2c(c1)OCO2 (stereo not given)	> 95.5	63.9	> 100	> 100	> 100	> 100	> 100	> 100	> 100	> 100	> 100	> 100	> 100	
CCCCCCCCCCCCP(=O)(O)OCC(N)C(=O)O (stereo not given)		> 100	> 100	26	> 100	> 100	41.4	24.8	73.3	> 100	> 100	> 100	36.5	
CC1(C)O[C@@H]2[C@@H]3OC(=O)C[C@@H]3[C@@H](COCc3ccccc3)[C@@H]2O1	> 100	> 100	> 100	> 100	> 100	> 100	> 100	> 100	> 100	> 100	> 100	> 100	> 100	
O=C(O)c1cc(Sc2ccc([N+](=O)[O-])c(C(=O)O)c2)ccc1[N+](=O)[O-]	> 100	> 100	> 100	> 100	> 100	> 100	> 100	> 100	> 100	> 100	> 100	> 100	> 100	> 100
Cc1nc2c(ncn2CCO)c(=O)[nH]1	> 100	> 100	> 100		> 100	> 100	> 100	> 100	> 100	> 100	> 100	> 100	> 100	
OCSc1nn(CO)c(=S)s1	40.4	11.9	> 100		40.7	68.1	71.9	56.8	92.7	50.5	32.8	43.4	48.4	
CCCCCC(/C=N/N)C(O)(C(F)(F)F)C(F)(F)F (stereo not given)	> 10	> 10	> 10		9.49	> 10	8.6	> 10	> 10	5.92	> 10		> 10	
C[C@]12CCC(=O)C=C1CC[C@@H]1C2CC[C@]2(C)Nc3c(ncn3-c3ccc(F)cc3)CC12 (stereo not given in full)	85.9	29.9	> 100	> 100		> 100	45.3	95.9	> 100	> 100	> 100	69	> 100	
COC1(C)C=NCC(C)(C)NC(=O)C(C)(OC)C=NCC(C)(C)NC1=O (stereo not given)	> 10	> 10				> 10	> 10	> 10	> 10	> 10	> 10	> 10		
O=C(Nc1c(Cl)cc([N+](=O)[O-])cc1Cl)/C(=N\Nc1cccc(Cl)c1)c1c(O)c2ccccc2oc1=O	> 100	> 100	> 100	78.1		> 100	> 100		> 100	> 100	> 100	> 100	> 100	
N=c1oc2c(Cl)cc(Cl)cc2cc1C(=O)Nc1ccccn1	> 100	65.9	> 100	> 100		64.4	> 100	> 100	> 100	> 100		> 100	57.5	
Cc1nn(C)c2c1C(=O)N(C)CC(=O)N2C	> 100	> 100	> 100	> 100		> 100	> 100	> 100	> 100	> 100	> 100	> 100	> 100	

— PubChem BioAssay (NCI)
